In patent publication US12570655B2, “Cysteine covalent modifiers of AKT1 and uses thereof” (Terremoto Biosciences, Inc., priority 2023, dated 2026):

Legend:
Format in all cases: cell-based
[1] = system: LAPC4 prostate cancer cells; experiment: Antiproliferative effects in LAPC4 cells (CellTiter Glo); conditions: Homo sapiens, LAPC4, 72 h, LAPC4 cells (AKT1 E17K allele), read-out: LAPC4 proliferation IC50
In short: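 Luminescent ATP read-out (CellTiter Glo) after 72 h compound exposure; 1,000 cells/well in IMDM + 12% FBS + 1% P/S. IC50 by Hill equation fit of luminescence vs. log(inhibitor).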

AKT2 = target: T1, AKT2 (Homo sapiens, UniProt P31751); experiment: Live cell AKT2 target engagement by NanoBRET competitive probe displacement; conditions: HEK293 cells transfected with kinase-NanoLuciferase fusion, 2 h at 37° C.
T1 construct: expressed in transfected cells; host or cells: HEK293
In short: (§1)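 NanoLuc-kinase fusions, HEK293, transfected overnight; compound serial dilution + ATP-competitive fluorescent tracer at ~EC50; 2 h, 37 °C. Read 460/600 nm with extracellular NanoLuc inhibitor; BRET = E600/E460; IC50 by Hill fit.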

AKT1 E17K = target: T2, AKT1 E17K (Homo sapiens, UniProt P31749, E17K); experiment: Live cell AKT1 E17K target engagement by NanoBRET competitive probe displacement; conditions: HEK293 cells transfected with kinase-NanoLuciferase fusion, 2 h at 37° C.
T2 construct: expressed in transfected cells; host or cells: HEK293
In short: as §1

AKT1 WT = target: T3, AKT1 WT (Homo sapiens, UniProt P31749); experiment: Live cell AKT1 WT target engagement by NanoBRET competitive probe displacement; conditions: HEK293 cells transfected with kinase-NanoLuciferase fusion, 2 h at 37° C.
T3 construct: expressed in transfected cells; host or cells: HEK293
In short: as §1

T3 sequence (P31749 whole entry, the tested form may be a part): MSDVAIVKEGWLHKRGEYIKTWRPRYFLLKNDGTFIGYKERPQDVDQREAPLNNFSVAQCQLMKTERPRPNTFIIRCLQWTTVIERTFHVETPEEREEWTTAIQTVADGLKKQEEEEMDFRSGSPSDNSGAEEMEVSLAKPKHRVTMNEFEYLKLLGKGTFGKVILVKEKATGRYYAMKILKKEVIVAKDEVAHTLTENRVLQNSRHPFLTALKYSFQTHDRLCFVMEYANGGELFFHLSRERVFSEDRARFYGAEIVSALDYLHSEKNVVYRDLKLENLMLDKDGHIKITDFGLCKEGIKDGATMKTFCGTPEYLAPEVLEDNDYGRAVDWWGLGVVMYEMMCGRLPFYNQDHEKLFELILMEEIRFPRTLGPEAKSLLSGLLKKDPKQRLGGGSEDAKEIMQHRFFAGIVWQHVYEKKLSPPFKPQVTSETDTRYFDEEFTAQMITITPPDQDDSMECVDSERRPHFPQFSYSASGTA
T1 sequence (P31751 whole entry, the tested form may be a part): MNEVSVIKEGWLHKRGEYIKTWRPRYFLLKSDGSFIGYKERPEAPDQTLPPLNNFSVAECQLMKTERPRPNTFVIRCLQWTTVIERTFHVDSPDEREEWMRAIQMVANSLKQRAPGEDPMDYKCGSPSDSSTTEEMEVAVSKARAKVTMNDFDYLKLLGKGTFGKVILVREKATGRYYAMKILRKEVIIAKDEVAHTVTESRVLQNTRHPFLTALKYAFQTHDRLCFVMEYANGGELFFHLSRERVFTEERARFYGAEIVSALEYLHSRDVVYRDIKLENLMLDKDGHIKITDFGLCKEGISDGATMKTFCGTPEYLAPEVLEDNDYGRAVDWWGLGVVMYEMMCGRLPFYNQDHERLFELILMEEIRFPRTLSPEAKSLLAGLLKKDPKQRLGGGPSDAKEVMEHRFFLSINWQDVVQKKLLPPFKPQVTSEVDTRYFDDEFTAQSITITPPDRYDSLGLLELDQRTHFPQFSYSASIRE
T2 sequence (P31749 whole entry E17K, the tested form may be a part): as the sequence (P31749 whole entry, the tested form may be a part) above, with E17K counted along it

Row | Structure (SMILES) | IC50 [1] [nM] | IC50 (AKT2) [nM] | IC50 (AKT1 E17K) [nM] | IC50 (AKT1 WT) [nM]
1 | C=CC(=O)N1CCc2ccc(C(=O)N[C@H]3CCc4cc(-n5c(-c6cccnc6N)nc6ccc(-n7cccn7)nc65)ccc43)cc21 [Example 7, (S)-1-acryloyl-N-(5-(2-(2-aminopyridin-3-yl)-5-(1H-pyrazol-1-yl)-3H-imidazo[4,5-b]pyridin-3-yl)-2,3-dihydro-1H-inden-1-yl)indoline-6-carboxamide] | 2060 | 69.4 | 42.8 | 20.7
2 | C=C(F)C(=O)Nc1cccc(C(=O)N[C@H]2CCc3cc(-n4c(-c5cccnc5N)nc5ccc(-n6cccn6)nc54)ccc32)c1 [Example 8, (S)-N-(5-(2-(2-aminopyridin-3-yl)-5-(1H-pyrazol-1-yl)-3H-imidazo[4,5-b]pyridin-3-yl)-2,3-dihydro-1H-inden-1-yl)-3-(2-fluoroacrylamido)benzamide] | 1120 | 71.5 | 112 | 7.07
3 | CC#CC(=O)Nc1ccccc1C(=O)N[C@H]1CCc2cc(-n3c(-c4cccnc4N)nc4ccc(-n5cccn5)nc43)ccc21 [Example 9, N-[(1S)-5-[2-(2-aminopyridin-3-yl)-5-(pyrazol-1-yl)imidazo[4,5-b]pyridin-3-yl]-2,3-dihydro-1H-inden-1-yl]-2-(but-2-ynamido)benzamide] | 528 | 440 | 96.9 | 21.9
4 | C=CC(=O)N1CCc2cccc(C(=O)N[C@H]3CCc4cc(-n5c(-c6cccnc6N)nc6ccc(-n7cccn7)nc65)ccc43)c21 [Example 10, N-[(1S)-5-[2-(2-aminopyridin-3-yl)-5-(pyrazol-1-yl)imidazo[4,5-b]pyridin-3-yl]-2,3-dihydro-1H-inden-1-yl]1-(prop-2-enoyl)-2,3-dihydroindole-7-carboxamide] | 1860 | 1470 | > 1000 | 121
5 | C=CC(=O)Nc1cc(C(=O)N[C@H]2CCc3cc(-n4c(-c5cccnc5N)nc5ccc(-n6cccn6)nc54)ccc32)ccn1 [Example 11, (S)-2-acrylamido-N-(5-(2-(2-aminopyridin-3-yl)-5-(1H-pyrazol-1-yl)-3H-imidazo[4,5-b]pyridin-3-yl)-2,3-dihydro-1H-inden-1-yl)isonicotinamide] | 650 | 25.9 | 7.03 | 4.29
6 | CC#CC(=O)Nc1cccc(C(=O)N[C@H]2CCc3cc(-n4c(-c5cccnc5N)nc5ccc(-n6cccn6)nc54)ccc32)c1 [Example 12, (S)-N-(5-(2-(2-aminopyridin-3-yl)-5-(1H-pyrazol-1-yl)-3H-imidazo[4,5-b]pyridin-3-yl)-2,3-dihydro-1H-inden-1-yl)-3-(but-2-ynamido)benzamide] | 343 | 129 | 12.9 | 11.2
7 | C=CC(=O)N1CC2CCC(C1)C2N[C@H]1CCc2cc(-n3c(-c4cccnc4N)nc4ccc(-n5cccn5)nc43)ccc21 (stereo partly drawn) [Example 14, 1-(8-{[(1S)-5-[2-(2-aminopyridin-3-yl)-5-(pyrazol-1-yl)imidazo[4,5-b]pyridin-3-yl]-2,3-dihydro-1H-inden-1-yl]amino}-3-azabicyclo[3.2.1]octan-3-yl)prop-2-en-1-one] | 1160 | 1420 | 436 | 85.3
8 | C=CC(=O)Nc1cccc(C)c1C(=O)N[C@H]1CCc2cc(-n3c(-c4cccnc4N)nc4ccc(-n5cccn5)nc43)ccc21 [Example 15, (S)-2-acrylamido-N-(5-(2-(2-aminopyridin-3-yl)-5-(1H-pyrazol-1-yl)-3H-imidazo[4,5-b]pyridin-3-yl)-2,3-dihydro-1H-inden-1-yl)-6-methylbenzamide] | 366 | 377 | 78.7 | 34.3
9 | CN(C)C/C=C/C(=O)Nc1ccccc1C(=O)N[C@H]1CCc2cc(-n3c(-c4cccnc4N)nc4ccc(-n5cccn5)nc43)ccc21 [Example 16, (S,E)-N-(5-(2-(2-aminopyridin-3-yl)-5-(1H-pyrazol-1-yl)-3H-imidazo[4,5-b]pyridin-3-yl)-2,3-dihydro-1H-inden-1-yl)-2-(4-(dimethylamino)but-2-enamido)benzamide] | 183 | 67.8 | 52.7 | 11.3
10 | C=C(C)C(=O)Nc1ccccc1C(=O)N[C@H]1CCc2cc(-n3c(-c4cccnc4N)nc4ccc(-n5cccn5)nc43)ccc21 [Example 17, (S)-N-(5-(2-(2-aminopyridin-3-yl)-5-(1H-pyrazol-1-yl)-3H-imidazo[4,5-b]pyridin-3-yl)-2,3-dihydro-1H-inden-1-yl)-2-methacrylamidobenzamide] | 2330 | 1020 | 146 | 43
11 | C=C(F)C(=O)N1CCc2c(C(=O)N[C@H]3CCc4cc(-n5c(-c6cccnc6N)nc6ccc(-n7cccn7)nc65)ccc43)cccc21 [Example 18, (S)-N-(5-(2-(2-aminopyridin-3-yl)-5-(1H-pyrazol-1-yl)-3H-imidazo[4,5-b]pyridin-3-yl)-2,3-dihydro-1H-inden-1-yl)-1-(2-fluoroacryloyl)indoline-4-carboxamide] | 1570 | 208 | 243 | 61.5
12 | C=CC(=O)Nc1ccccc1C(=O)N[C@H]1CCc2cc(-n3c(-c4cccnc4N)nc4ccc(-n5nccn5)nc43)ccc21 [Example 19, (S)-2-acrylamido-N-(5-(2-(2-aminopyridin-3-yl)-5-(2H-1,2,3-triazol-2-yl)-3H-imidazo[4,5-b]pyridin-3-yl)-2,3-dihydro-1H-inden-1-yl)benzamide] | 88 | 326 | 27 | 15.8
13 | C=CC(=O)Nc1ccc(F)cc1C(=O)N[C@H]1CCc2cc(-n3c(-c4cccnc4N)nc4ccc(-n5cccn5)nc43)ccc21 [Example 20, N-[(1S)-5-[2-(2-aminopyridin-3-yl)-5-(pyrazol-1-yl)imidazo[4,5-b]pyridin-3-yl]-2,3-dihydro-1H-inden-1-yl]-5-fluoro-2-(prop-2-enamido)benzamide] | 18.3 | 20.2 | 9.64 | 7.5
14 | C=CC(=O)Nc1cc(F)ccc1C(=O)N[C@H]1CCc2cc(-n3c(-c4cccnc4N)nc4ccc(-n5cccn5)nc43)ccc21 [Example 21, (S)-2-acrylamido-N-(5-(2-(2-aminopyridin-3-yl)-5-(1H-pyrazol-1-yl)-3H-imidazo[4,5-b]pyridin-3-yl)-2,3-dihydro-1H-inden-1-yl)-4-fluorobenzamide] | 88.5 | 74.8 | 32.8 | 22.6
15 | C=C(F)C(=O)Nc1ccccc1C(=O)N[C@H]1CCc2cc(-n3c(-c4cccnc4N)nc4ccc(-n5nccn5)nc43)ccc21 [Example 23, (S)-N-(5-(2-(2-aminopyridin-3-yl)-5-(2H-1,2,3-triazol-2-yl)-3H-imidazo[4,5-b]pyridin-3-yl)-2,3-dihydro-1H-inden-1-yl)-2-(2-fluoroacrylamido)benzamide] | 426 | 2250 | 135 | 50.1
16 | C=CS(=O)(=O)Nc1ccccc1C(=O)N[C@H]1CCc2cc(-n3c(-c4cccnc4N)nc4ccc(-n5cccn5)nc43)ccc21 [Example 24, (S)-N-(5-(2-(2-aminopyridin-3-yl)-5-(1H-pyrazol-1-yl)-3H-imidazo[4,5-b]pyridin-3-yl)-2,3-dihydro-1H-inden-1-yl)-2-(vinylsulfonamido)benzamide] | 238 | 37.9 | 14.1 | 12
17 | C=CC(=O)N1CCC[C@@H]1C(=O)N[C@H]1CCc2cc(-n3c(-c4cccnc4N)nc4ccc(-n5cccn5)nc43)ccc21 [Example 25] | > 10000 | > 10000 | > 1000 | > 1000
18 | C=CC(=O)N1CCC[C@H]1C(=O)N[C@H]1CCc2cc(-n3c(-c4cccnc4N)nc4ccc(-n5cccn5)nc43)ccc21 [Example 26, (S)-1-acryloyl-N—((S)-5-(2-(2-aminopyridin-3-yl)-5-(1H-pyrazol-1-yl)-3H-imidazo[4,5-b]pyridin-3-yl)-2,3-dihydro-1H-inden-1-yl)pyrrolidine-2-carboxamide] | 2050 | > 10000 | > 1000 | > 1000
19 | C=CC(=O)N1C2CCC1CC(N[C@H]1CCc3cc(-n4c(-c5cccnc5N)nc5ccc(-n6cccn6)nc54)ccc31)C2 (stereo partly drawn) [Example 27, 1-(3-(((S)-5-(2-(2-aminopyridin-3-yl)-5-(1H-pyrazol-1-yl)-3H-imidazo[4,5-b]pyridin-3-yl)-2,3-dihydro-1H-inden-1-yl)amino)-8-azabicyclo[3.2.1]octan-8-yl)prop-2-en-1-one] | 425 | 192 | 107 | 39.4
20 | C=CC(=O)N1CC(N[C@H]2CCc3cc(-n4c(-c5cccnc5N)nc5ccc(-n6cccn6)nc54)ccc32)C1 [Example 28, (S)-1-(3-((5-(2-(2-aminopyridin-3-yl)-5-(1H-pyrazol-1-yl)-3H-imidazo[4,5-b]pyridin-3-yl)-2,3-dihydro-1H-inden-1-yl)amino)azetidin-1-yl)prop-2-en-1-one] | 216 | 250 | 81.6 | 50.1
